# Target: T1, MNV P domain (Murine norovirus 1, UniProt Q80J94)
# T1 construct: gene ORF2; C-terminal protruding (P) domain of VP1, expressed as soluble form without the shell domain; dimerizes
# Test: isothermal titration calorimetry
# Type: binding
# T1 sequence (Q80J94 229-541): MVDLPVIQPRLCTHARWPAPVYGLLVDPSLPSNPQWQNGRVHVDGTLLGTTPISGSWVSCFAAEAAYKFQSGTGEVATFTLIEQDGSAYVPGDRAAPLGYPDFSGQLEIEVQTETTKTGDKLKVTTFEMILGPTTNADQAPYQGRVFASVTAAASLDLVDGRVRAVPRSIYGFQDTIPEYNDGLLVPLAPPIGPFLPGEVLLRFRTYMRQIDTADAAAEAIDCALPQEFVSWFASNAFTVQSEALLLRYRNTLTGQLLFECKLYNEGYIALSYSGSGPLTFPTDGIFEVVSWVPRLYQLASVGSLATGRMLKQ
compound,measurement,value
C[C@H](CCC(=O)NCC(=O)O)[C@H]1CC[C@H]2[C@@H]3[C@H](O)C[C@@H]4C[C@H](O)CC[C@]4(C)[C@H]3CC[C@]12C [GCDCA],Kd,~13 µM

# Reference: paper PMC13464545, “Mouse Norovirus Uses Host Metabolites to Enhance Receptor Binding and Evade Immune Recognition” (Medical research archives, 2022)
